# Assay: logP determination by HPLC on a reverse phase column (C18), EEC Directive 79/831 Annex V.A8
# Format: physicochemical
# Conditions: HPLC C18, 43° C.; for logP (pH 2.3): Table 1; for chromatographic logP: reverse phase HPLC column (C18), pH 2.3
# Protocol: The specified logP values are determined by HPLC on a reverse phase column (C18) in accordance with EEC Directive 79/831 Annex V.A8. Temperature: 43° C. Eluents for the measurement in the acid range (pH 2.3): 0.1% aqueous phosphoric acid, acetonitrile; linearer gradient of 10% acetonitrile to 90% acetonitrile. Calibration is performed with unbranched alkyl-2-ones (with 3 to 16 carbon atoms) with known logP values (determination of the logP values based on retention times by linear interpolation between two sequential alkyl ketones).
SMILES,logP (pH 2.3),chromatographic logP
Cc1sccc1C(=O)Nc1ccccc1C(C)S(=O)(=O)C(C)C (stereo not drawn) [Compound No. 4],2.38,–
CC(C)S(=O)(=O)C(C)c1ccccc1NC(=O)c1ccccc1C(F)(F)F (stereo not drawn) [Compound No. 6],2.53,–
"Cc1nn(C)c(F)c1C(=O)Nc1ccccc1C(C)NC(C)C (stereo not drawn) [Compound No. 40, 5-fluoro-N-{2-[1-(isopropylamino)ethyl]phenyl}-1,3-dimethyl-1H-pyrazole-4-carboxamide]",–,0.58
"CC(C)OCc1ccccc1NC(=O)c1cn(C)nc1C(F)(F)F [Compound No. 60, N-[2-(isopropoxymethyl)phenyl]-1-methyl-3-(trifluoromethyl)-1H-pyrazol-4-carboxamide]",–,2.85
"CC(C)SC(C)c1ccccc1N (stereo not drawn) [III-1, 2-[1-(isopropylthio)ethyl]aniline]",–,2.45
"CC(C)S(=O)(=O)C(C)c1ccccc1N (stereo not drawn) [III-2, 2-[1-(isopropylsulfonyl)ethyl]aniline]",–,1.28
"CC(C)SCc1ccccc1N [III-3, 2-[1-(isopropylthio)methyl]aniline]",–,1.94
"CC(C)NC(C)c1ccccc1N (stereo not drawn) [III-4, 2-[1-(isopropylamino)ethyl]aniline]",–,0.05
"Cn1cc(C(=O)Nc2ccccc2CO)c(C(F)(F)F)n1 [IV-1, N-[2-(hydroxymethyl)phenyl]-1-methyl-3-(trifluoromethyl)-1H-pyrazole-4-carboxamide]",–,1.55
"CC(C)S(=O)(=O)Cc1ccccc1[N+](=O)[O-] [VI-3, 1-[(isopropylsulfonyl)methyl]-2-nitrobenzene]",–,1.63
"CC(C)SC(C)c1ccccc1[N+](=O)[O-] (stereo not drawn) [VII-1, 1-[1-(isopropylthio)ethyl]-2-nitrobenzene]",–,3.89
"CC(C)SCc1ccccc1[N+](=O)[O-] [VII-2, 1-[1-(isopropylthio)methyl]-2-nitrobenzene]",–,3.28
"CC(C)NC(C)c1ccccc1[N+](=O)[O-] (stereo not drawn) [VII-5, N-[1-(2-nitrophenyl)ethyl]propane-2-amine]",–,0.55
"CC(Cl)c1ccccc1[N+](=O)[O-] (stereo not drawn) [VIII-1, 1-(1-chloroethyl)-2-nitrobenzene]",–,2.87
"CC(O)c1ccccc1[N+](=O)[O-] (stereo not drawn) [XI-1, 1-(2-nitrophenyl)ethanol]",–,1.49
COCc1ccccc1NC(=O)C1=C(C)OCC1 [compound 1],2.18,–
CC1=C(C(=O)Nc2ccccc2C(C)S(=O)(=O)C(C)C)SCCO1 (stereo not drawn) [compound 2],2.07,–
CC(C)S(=O)(=O)C(C)c1ccccc1NC(=O)c1ccccc1Br (stereo not drawn) [compound 3],2.30,–
CC(C)S(=O)(=O)C(C)c1ccccc1NC(=O)c1cccnc1Cl (stereo not drawn) [compound 5],1.68,–
CC(C)S(=O)(=O)C(C)c1ccccc1NC(=O)c1ccccc1I (stereo not drawn) [compound 7],2.43,–
Cc1occc1C(=O)Nc1ccccc1C(C)S(=O)(=O)C(C)C (stereo not drawn) [compound 8],2.21,–
Cc1nc(C(F)(F)F)c(C(=O)Nc2ccccc2C(C)S(=O)(=O)C(C)C)s1 (stereo not drawn) [compound 9],2.35,–
CC(C)S(=O)(=O)C(C)c1ccccc1NC(=O)C1=C(C(F)(F)F)OCCS1 (stereo not drawn) [compound 10],2.39,–
Cc1nn(C)c(F)c1C(=O)Nc1ccccc1C(C)S(=O)(=O)C(C)C (stereo not drawn) [compound 11],1.66,–

# Further lines, results first:
logP (pH 2.3),chromatographic logP,SMILES
4.02,–,CCCC(C)SC(C)c1ccccc1NC(=O)c1cn(C)nc1C(F)(F)F (mixture of isomers) [compound 42]
3.82,–,CCCC(C)SC(C)c1ccccc1NC(=O)c1c(C)nn(C)c1F (mixture of isomers) [compound 43]
4.52,–,CCCC(C)SC(C)c1ccccc1NC(=O)c1sc(C)nc1C(F)(F)F (mixture of isomers) [compound 44]
4.14,–,CCC(C)SC(C)c1ccccc1NC(=O)c1cn(C)nc1C(F)(F)F (mixture of isomers) [compound 45]
3.38,–,CCC(C)SC(C)c1ccccc1NC(=O)c1c(C)nn(C)c1F (mixture of isomers) [compound 46]
4.75,–,CCCC(C)SC(C)c1ccccc1NC(=O)c1ccccc1I (mixture of isomers) [compound 47]
4.12,–,CCC(C)SC(C)c1ccccc1NC(=O)c1sc(C)nc1C(F)(F)F (mixture of isomers) [compound 48]
4.33,–,CCC(C)SC(C)c1ccccc1NC(=O)c1ccccc1I (mixture of isomers) [compound 49]
3.79,–,CC(C)SC(C)c1ccccc1NC(=O)c1ccccc1Br (racemic) [compound 26]
3.91,–,CC(C)SC(C)c1ccccc1NC(=O)c1ccccc1I (racemic) [compound 27]
3.01,–,CC(C)SC(C)c1ccccc1NC(=O)c1cn(C)nc1C(F)F (racemic) [compound 28]
3.55,–,Cc1nc(C(F)F)c(C(=O)Nc2ccccc2C(C)SC(C)C)s1 (racemic) [compound 29]
3.76,–,CC(C)SC(C)c1ccccc1NC(=O)C1=C(C(F)(F)F)OCCS1 (racemic) [compound 30]
2.17,–,COC(C)c1ccccc1NC(=O)c1c(C)nn(C)c1F (racemic) [compound 31]
2.46,–,COC(C)c1ccccc1NC(=O)c1cn(C)nc1C(F)(F)F (racemic) [compound 32]
3.56,–,COC(C)c1cc(Cl)ccc1NC(=O)c1ccccc1C(F)(F)F (racemic) [compound 33]
2.99,–,COC(C)c1ccccc1NC(=O)c1ccccc1C(F)(F)F (racemic) [compound 34]
1.06,–,CC(C)NC(C)c1ccccc1NC(=O)c1cn(C)nc1C(F)(F)F (racemic) [compound 41]
4.29,–,CCCC(C)SC(C)c1ccccc1NC(=O)c1cn(C)cc1C(F)(F)F (racemic) [compound 109]
4.49,–,CCCC(C)SC(C)c1ccccc1NC(=O)C1=C(C(F)(F)F)OCCS1 (racemic) [compound 110]
4.38,–,CCCC(C)SC(C)c1ccccc1NC(=O)c1c(C(F)(F)F)nn(C)c1F (racemic) [compound 111]
4.76,–,CCCC(C)SC(C)c1ccccc1NC(=O)c1ccccc1C (racemic) [compound 112]
4.07,–,CCCC(C)SC(C)c1ccccc1NC(=O)c1c(C)nn(C)c1Cl (racemic) [compound 113]
3.99,–,CCC(C)SC(C)c1ccccc1NC(=O)c1c(C(F)(F)F)nn(C)c1F (racemic) [compound 121]
2.23,–,CC(C)S(=O)(=O)C(C)c1ccccc1NC(=O)c1ccccc1Cl (stereo not drawn) [compound 12]
2.16,–,Cc1nc(C(F)F)c(C(=O)Nc2ccccc2C(C)S(=O)(=O)C(C)C)s1 (stereo not drawn) [compound 13]
1.46,–,Cc1nn(C)cc1C(=O)Nc1ccccc1C(C)S(=O)(=O)C(C)C (stereo not drawn) [compound 14]
2.09,–,CC(C)S(=O)(=O)C(C)c1ccccc1NC(=O)c1cn(C)nc1C(F)(F)F (stereo not drawn) [compound 15]
1.86,–,CC(C)S(=O)(=O)C(C)c1ccccc1NC(=O)c1cn(C)nc1C(F)F (stereo not drawn) [compound 16]
2.53,–,Cc1nn(C)cc1C(=O)Nc1ccccc1C(C)SC(C)C (stereo not drawn) [compound 17]

# From patent US7842710B2, “Carboxamides” (Bayer Cropscience AG, priority 2004, dated 2010)
